Measured values published in patent US9439916B2, “Composition for decelerating the aging in the organism and for extending the life time thereof and the use of said composition” (MITOTECH SA, priority 2007, dated 2016).

How the values were obtained:
Assay type in all cases: in vivo
[1] = tested on: horse with senile blindness; experiment: Veterinary clinical trial, senile blindness in a horse
Excerpt: B) Patient—horse, gelding, not thoroughbred, age—20 years. Diagnosis—senile blindness associated with degeneration of the retina and its vessels. Clinical signs—shortening and thinning of retinal vessels emanating from the optic disk, depigmentation of t. lucidum t. nigrum, thinning of the retina over the entire surface of eye fundus. As a result, Choroid blood vessels in the form of straight lines are well visualized, posterior polar senile cataract is detected. The animal cannot see during the last eight months.
Treatment—daily instillation of 250 nM SkQ1 solution (in physiological solution at pH 6.5), and since the 3rd month of treatment—2 times a day.

Drosophila melanogaster = experiment: Life span of fruit flies, line w1118, fed SkQ1
Description: Isogenous laboratory Drosophila line w^1118 in which all individuals have the same genotype was chosen for the experiments, thus eliminating the influence of genetic differences between individuals on the results of experiments. The mitochondria-targeted antioxidant SkQ1 at a concentration of 1.85 nM was tested. Stock SkQ solution was diluted in distilled water. Adult flies were administered the compound throughout their lives. Since adult flies can feed on food located on the surface, it was decided to spread the SkQ1 solution of a corresponding concentration on the surface of freshly prepared medium poured into test tubes containing the flies. Virgin females and males of line w^1118 selected during the day were placed in tubes, each tube contained five individuals (males and females separately), in standard medium. In control tubes, 100 μl of distilled water without SkQ was spread on standard medium surface; in test tubes, 100 μl of the test compound at a selected concentration was spread on standard medium surface. The number of live flies in each tube was recorded daily, once a week flies were transferred to a corresponding fresh medium. All tubes were incubated at 25° C. In each experiment, 100 individuals (20 tubes) were analyzed.

p53 (-/-) mice = experiment: Life span of p53 gene knockout mice; conditions: 0.1 nmoles per mouse per day (5 nM/kg/day) with drinking water
Excerpt: Mice lacking the p53 gene (p53−/−) can not synthesize the p53 protein, so-called “guardian of the genome”, and can serve as a model of accelerated ageing and death of the organism caused by cancer [for more details, see A. A. Sablina, A. V. Budanov, G. V. Ilyinskaya, L. S. Agapova, J. E. Kravchenko, P. M. Chumakov (2005) The antioxidant function of the p53 tumor suppressor //Nature Med., 11, 1306-1313)].
Based on the previously conducted PCR analysis detecting p53−/−, p53+/− and p53+/+ mice in the progeny of heterozygous (p53+/−) animals, the two groups of mice were drawn up which received: • clean drinking water; • water supplemented with SkQ1 (0.1 nmoles of the preparation per mouse per day (5 nM/kg/day)).

female SHR mice = experiment: Age-related changes in estrous function of female SHR mice
Description: (§1) An experiment with outbred SHR mice was carried out. The mice were divided into four groups (25 animals per each group). The three groups received a certain amount of SkQ1 with drinking water throughout their lives, and the fourth (control) group received water without SkQ1. Dose of SkQ1 is given in nanomoles per kg of animal weight per day.
With increasing the duration of the observation period, tendency of decelerating age-related disorders in estrous function in experimental animals becomes more pronounced, which were expressed as increase in the duration of cycle and lowering the frequency of regular cycles. For example, in the 2nd cohort in 15-month-old experimental animals received SkQ1 at a dose of 0.01 nanomoles per day, the frequency of regular cycles was 94%, whereas in the control—67%.

SHR mice = experiment: Life span of outbred SHR mice receiving SkQ1 with drinking water; conditions: for animals remained alive in 707 days of the experiment: SHR mice, SkQ1 with drinking water lifelong, control 8%
Description: as §1
(V. N. Anisimov, I. N. Alimova, D. A. Baturin, I. G. Popovich, M. A. Zabezhinski, S. V. Rosenfeld, K. G. Manton, A. V. Semenchenko, A. I. Yashin (2003) Dose-dependent effect of melatonin on life span and spontaneous tumor incidence in female SHR mice. Exp Gerontol. 38, 449-461).

[2] = tested on: cat with senile generalized progressive retinal dystrophy; experiment: Veterinary clinical trial, senile blindness in a cat; conditions: 15 years, daily instillation of 250 nM SkQ1 solution, pH 6.5
Description: A) Patient—cat, breed—European Shorthair, age—15 years. Diagnosis—retinitis, papillitis, senile generalized progressive retinal dystrophy. Clinical signs—depigmentation of t. lucidum, the optic disk (OD) is violet. Retinal detachment. Vision is absent.
Treatment—daily instillation of 250 nM SkQ1 solution (in physiological solution at pH 6.5).

OXYS rats [3] = experiment: Bone tissue state by X-ray densitometry (osteoporosis); conditions: two 45-day courses of 50 nanomoles per kg per day, studied at 6 months
Description: Experiments were conducted on the two lines of rats—Wistar and OXYS. Genetically determined metabolic defect, manifesting itself as decreased resistance of OXYS rats towards oxidative stress, leads to changes in their organism which may be regarded as accelerated ageing syndrome. In particular, reduced bone mineral density in OXYS rats, as compared to Wistar rats, is observed. Such changes are also observed in osteoporosis in humans that allows us to consider these animals as an adequate model of senile osteoporosis in humans.
Wistar and OXYS rats,—control rats and those who received two courses of SkQ1 (50 nanomoles per kg of body weight per day), were studied. The animals received the preparation since 1.5 and 4 months of age for 45 days. At the age of 6 months, bone tissue state was studied by X-ray densitometry.

rats = experiment: Behavioral tests "open field" and "elevated cruciform maze"
OXYS rats [4] = experiment: Morris water maze test of learning ability; conditions: 16-month-old OXYS rats, 250 nanomoles per kg of body weight since 1.5 months
Excerpt: The Morris water maze test is actively used for studies on learning and long-term spatial memory in animals. The method of Morris allows to evaluate strategies for behavior, dynamics of skill formation, to detect even weak differences in behavior. This test evaluates the ability of an animal, swimming in the opaque water of the pool and looking at the signs on its sides, to learn how to find the invisible, hidden platform under water, no matter from what point of the perimeter of the pool the animal was released.
In subsequent experiments, 4 groups of 16-month-old animals: control Wistar and OXYS rats, and groups received the preparation since 1.5 months at a dose of 250 nanomoles per kg of body weight, were used. A latent period of time spent by rats to find the platform depended only on the genotype—it took longer in OXYS rats than in Wistar rats—OXYS rats coped worse with the task.

OXYS male rats = experiment: Sexual motivation model: male near receptive female behind a barrier; conditions: one year old OXYS males
Excerpt: […] To do this, an experimental model of sexual arousal was used—males were kept under conditions allowing them to see the receptive female, perceive the female's smell, but excluding physical contact with the female. Under these conditions, male rats and male mice show increase in blood testosterone level and typical motivational behavior.

Structure (SMILES): CC1=C(C)C(=O)C(CCCCCCCCCC[P+](c2ccccc2)(c2ccccc2)c2ccccc2)=CC1=O [SkQ1]
- vision after 90 days of the treatment ([1]; 20 years, instillation of 250 nM SkQ1 solution daily, 2 times a day since 3rd month): The vision was restored
- growth of new blood vessels from the optic disk ([1]; after 90 days of the treatment with 250 nM SkQ1 instillation): 40
- fraction of individuals aged 70 days and older (Drosophila melanogaster; 1.85 nM SkQ1, control 0.18, P=0.0056): 0.48
- average life expectancy (Drosophila melanogaster; 1.85 nM SkQ1 on medium surface, 25° C., control 58 days, P=0.0012): 66 days
- life span of p53 (-/-) mice (p53 (-/-) mice): dramatic increase of the life span
- frequency of regular estrous cycles (female SHR mice; 2nd cohort, 15-month-old female SHR mice, 0.01 nanomoles per day, control 67%): 94%
- age-related changes in estrous function (female SHR mice; female SHR mice received SkQ1, compared to the control group): less pronounced age-related changes in estrous function
- animals remained alive in 707 days of the experiment (SHR mice; first of three test groups (dose not given)): 36%
- animals remained alive in 707 days of the experiment (SHR mice; second of three test groups (dose not given)): 28%
- animals remained alive in 707 days of the experiment (SHR mice; third of three test groups (dose not given)): 24%
- life span of SHR mice (SHR mice; optimal doses (1 nanomole per animal per day), versus control): much longer life span
- vision after 10 days of the treatment [2]: the pupil began to respond to light, the cat began to play with the ball and see even small objects
- vision after 21 days of the treatment [2]: vision retained
- bone mineral density of femur and tibia (OXYS rats [3]): reliably increased
- total mass of bone tissue (OXYS rats [3]): reliably increased
- stress-protective effect (rats; Wistar rats): clear stress-protective effect
- search and exploratory activity of rats (rats; open field and elevated cruciform maze): positive effect
- ability to learn (latent period to find the platform in the Morris maze) (OXYS rats [4]): improved the ability of OXYS rats to learn
- time spent by a male rat near a female rat separated by a barrier (OXYS male rats; 50 nanomoles of SkQ1, versus control males): reliably increased
- time spent by a male rat near a female rat separated by a barrier (OXYS male rats; 250 nanomoles of SkQ1, versus control males): reliably increased
